Source: US20250275540A1, “USE OF PROTOPORPHYRINOGEN OXIDASE” (BEIJING DABEINONG BIOTECHNOLOGY CO., LTD., priority 2022, published 2025)

Tested on: transgenic maize plants
Assay: Detection of the herbicide tolerance of the transgenic maize plants
Format: in vivo
Details: for The grade of pesticide damage/plant: 0 / The grade of pesticide damage/plant: 1 / The grade of pesticide damage/plant: 2 / The grade of pesticide damage/plant: 3: 7 DAT
Source text: The transformed Arabidopsis thaliana T1 plants were initially selected using glufosinate herbicide. The Arabidopsis thaliana T1 plants (PPOA-01) into which the PPOA-01 nucleotide sequence was introduced, the Arabidopsis thaliana T1 plants (PPOB-01) into which the PPOB-01 nucleotide sequence was introduced, the Arabidopsis thaliana T1 plants (PPOC-01) into which the PPOC-01 nucleotide sequence was introduced, the Arabidopsis thaliana T1 plants (PPOD-01) into which the PPOD-01 nucleotide sequence was introduced, the Arabidopsis thaliana T1 plants (PPOE-01) into which the PPOE-01 nucleotide sequence was introduced, the Arabidopsis thaliana T1 plants (PPOF-01) into which the PPOF-01 nucleotide sequence was introduced, the Arabidopsis thaliana T1 plants (PPO-AP-01) into which the PPO-AP-01 nucleotide sequence was introduced, and the Arabidopsis thaliana T1 plants (control vector) into which the control vector was introduced, the wild-type Arabidopsis thaliana plants (CK) (with 24 plants being included in each genotype) (18 days after sowing) were sprayed with saflufenacil at three concentrations (25 g ai/ha (one-fold field concentration, 1×), 100 g ai/ha (four-fold field concentration, 4×), and 0 g ai/ha (water, 0×)), oxyfluorfen at three concentrations (180 g ai/ha (one-fold field concentration, 1×), 720 g ai/ha (four-fold field concentration, 4×), and 0 g ai/ha (water, 0×)), and flumioxazin at three concentrations (60 g ai/ha (one-fold field concentration, 1×), 240 g ai/ha (four-fold field concentration, 4×), and 0 g ai/ha (water, 0×) to determine the tolerance of Arabidopsis thaliana to the herbicides. After 7 days of spraying (7 DAT), the damage level of each plant caused by the herbicide was evaluated according to the average of the damage levels (%) of plants (the average of the damage levels (%) of plants=the injured leaf area/the total leaf area×100%), i.e., the grade of pesticide damage: grade 0 means that the growth status of plants is essentially consistent with those sprayed with the blank solvent (water); grade 1 means that the average of the damage levels of plants is less than 10%; grade 2 means that the average of the damage levels of plants is greater than 10%; and grade 3 means that the average of the damage levels of plants is 100%. The plants having a growth status falling within grades 0 and 1 are classified as highly resistant plants; those having a growth status falling within grade 2 are classified as poorly resistant plants; and those having a growth status falling within grade 3 are classified as non-resistant plants.
The maize plants into which the PPOA-02 nucleotide sequence was introduced, the maize plants into which the PPOB-02 nucleotide sequence was introduced, the maize plants into which the PPOC-02 nucleotide sequence was introduced, the maize plants into which the PPOD-02 nucleotide sequence was introduced, the maize plants into which the PPOE-02 nucleotide sequence was introduced, the maize plants into which the PPOF-02 nucleotide sequence was introduced, the maize plants into which the PPO-AP-02 nucleotide sequence was introduced, the maize plants (control vector) into which the control vector was introduced, and the wild-type maize plants (CK) (with 16 plants being included in each genotype) (18 days after sowing) were taken and sprayed with saflufenacil at three concentrations (50 g ai/ha (two-fold field concentration, 2×), 100 g ai/ha (four-fold field concentration, 4×), and 0 g ai/ha (water, 0×)), oxyfluorfen at three concentrations (360 g ai/ha (two-fold field concentration, 2×), 720 g ai/ha (four-fold field concentration, 4×), and 0 g ai/ha (water, 0×), and flumioxazin at three concentrations (120 g ai/ha (two-fold field concentration, 2×), 240 g ai/ha (four-fold field concentration, 4×), and 0 g ai/ha (water, 0×) to determine the tolerance of maize plants to the herbicides. […]

[1] = genotype Control vector, 360 g ai/ha
[2] = genotype Control vector, 720 g ai/ha
[3] = genotype PPO-AP-02, 360 g ai/ha
[4] = genotype PPO-AP-02, 720 g ai/ha

CCOc1cc(Oc2ccc(C(F)(F)F)cc2Cl)ccc1[N+](=O)[O-] [oxyfluorfen, 2-chloro-1-(3-ethoxy-4-nitrophenoxy)-4-trifluoromethylbenzene]
The grade of pesticide damage/plant: 0 (genotype CK, 360 g ai/ha): 0 plant
The grade of pesticide damage/plant: 1 (genotype CK, 360 g ai/ha): 0 plant
The grade of pesticide damage/plant: 2 (genotype CK, 360 g ai/ha): 0 plant
The grade of pesticide damage/plant: 3 (genotype CK, 360 g ai/ha): 16 plant
The grade of pesticide damage/plant: 0 (genotype CK, 720 g ai/ha): 0 plant
The grade of pesticide damage/plant: 1 (genotype CK, 720 g ai/ha): 0 plant
The grade of pesticide damage/plant: 2 (genotype CK, 720 g ai/ha): 0 plant
The grade of pesticide damage/plant: 3 (genotype CK, 720 g ai/ha): 16 plant
The grade of pesticide damage/plant: 0 [1]: 0 plant
The grade of pesticide damage/plant: 1 [1]: 0 plant
The grade of pesticide damage/plant: 2 [1]: 0 plant
The grade of pesticide damage/plant: 3 [1]: 16 plant
The grade of pesticide damage/plant: 0 [2]: 0 plant
The grade of pesticide damage/plant: 1 [2]: 0 plant
The grade of pesticide damage/plant: 2 [2]: 0 plant
The grade of pesticide damage/plant: 3 [2]: 16 plant
The grade of pesticide damage/plant: 0 [3]: 0 plant
The grade of pesticide damage/plant: 1 [3]: 0 plant
The grade of pesticide damage/plant: 2 [3]: 8 plant
The grade of pesticide damage/plant: 3 [3]: 8 plant
The grade of pesticide damage/plant: 0 [4]: 0 plant
The grade of pesticide damage/plant: 1 [4]: 0 plant
The grade of pesticide damage/plant: 2 [4]: 0 plant
The grade of pesticide damage/plant: 3 [4]: 16 plant
tolerance to the herbicide (in words) (genotype PPO-AP-02, four-fold field concentration): no tolerance
share of the plants that exhibited no tolerance (genotype PPO-AP-02, two-fold field concentration): about 50%
The grade of pesticide damage/plant: 0 (genotype PPOA-02, 360 g ai/ha): 16 plant
The grade of pesticide damage/plant: 1 (genotype PPOA-02, 360 g ai/ha): 0 plant
The grade of pesticide damage/plant: 2 (genotype PPOA-02, 360 g ai/ha): 0 plant
The grade of pesticide damage/plant: 3 (genotype PPOA-02, 360 g ai/ha): 0 plant
The grade of pesticide damage/plant: 0 (genotype PPOA-02, 720 g ai/ha): 16 plant
The grade of pesticide damage/plant: 1 (genotype PPOA-02, 720 g ai/ha): 0 plant
The grade of pesticide damage/plant: 2 (genotype PPOA-02, 720 g ai/ha): 0 plant
The grade of pesticide damage/plant: 3 (genotype PPOA-02, 720 g ai/ha): 0 plant
The grade of pesticide damage/plant: 0 (genotype PPOB-02, 360 g ai/ha): 16 plant
The grade of pesticide damage/plant: 1 (genotype PPOB-02, 360 g ai/ha): 0 plant
The grade of pesticide damage/plant: 2 (genotype PPOB-02, 360 g ai/ha): 0 plant
The grade of pesticide damage/plant: 3 (genotype PPOB-02, 360 g ai/ha): 0 plant
The grade of pesticide damage/plant: 0 (genotype PPOB-02, 720 g ai/ha): 16 plant
The grade of pesticide damage/plant: 1 (genotype PPOB-02, 720 g ai/ha): 0 plant
The grade of pesticide damage/plant: 2 (genotype PPOB-02, 720 g ai/ha): 0 plant
The grade of pesticide damage/plant: 3 (genotype PPOB-02, 720 g ai/ha): 0 plant
The grade of pesticide damage/plant: 0 (genotype PPOC-02, 360 g ai/ha): 16 plant
The grade of pesticide damage/plant: 1 (genotype PPOC-02, 360 g ai/ha): 0 plant
The grade of pesticide damage/plant: 2 (genotype PPOC-02, 360 g ai/ha): 0 plant
The grade of pesticide damage/plant: 3 (genotype PPOC-02, 360 g ai/ha): 0 plant
The grade of pesticide damage/plant: 0 (genotype PPOC-02, 720 g ai/ha): 16 plant
The grade of pesticide damage/plant: 1 (genotype PPOC-02, 720 g ai/ha): 0 plant
The grade of pesticide damage/plant: 2 (genotype PPOC-02, 720 g ai/ha): 0 plant
The grade of pesticide damage/plant: 3 (genotype PPOC-02, 720 g ai/ha): 0 plant
The grade of pesticide damage/plant: 0 (genotype PPOD-02, 360 g ai/ha): 16 plant
The grade of pesticide damage/plant: 1 (genotype PPOD-02, 360 g ai/ha): 0 plant
The grade of pesticide damage/plant: 2 (genotype PPOD-02, 360 g ai/ha): 0 plant
The grade of pesticide damage/plant: 3 (genotype PPOD-02, 360 g ai/ha): 0 plant
The grade of pesticide damage/plant: 0 (genotype PPOD-02, 720 g ai/ha): 16 plant
The grade of pesticide damage/plant: 1 (genotype PPOD-02, 720 g ai/ha): 0 plant
The grade of pesticide damage/plant: 2 (genotype PPOD-02, 720 g ai/ha): 0 plant
The grade of pesticide damage/plant: 3 (genotype PPOD-02, 720 g ai/ha): 0 plant
The grade of pesticide damage/plant: 0 (genotype PPOE-02, 360 g ai/ha): 16 plant
The grade of pesticide damage/plant: 1 (genotype PPOE-02, 360 g ai/ha): 0 plant
The grade of pesticide damage/plant: 2 (genotype PPOE-02, 360 g ai/ha): 0 plant
The grade of pesticide damage/plant: 3 (genotype PPOE-02, 360 g ai/ha): 0 plant
The grade of pesticide damage/plant: 0 (genotype PPOE-02, 720 g ai/ha): 15 plant
The grade of pesticide damage/plant: 1 (genotype PPOE-02, 720 g ai/ha): 1 plant
The grade of pesticide damage/plant: 2 (genotype PPOE-02, 720 g ai/ha): 0 plant
The grade of pesticide damage/plant: 3 (genotype PPOE-02, 720 g ai/ha): 0 plant
The grade of pesticide damage/plant: 0 (genotype PPOF-02, 360 g ai/ha): 16 plant
The grade of pesticide damage/plant: 1 (genotype PPOF-02, 360 g ai/ha): 0 plant
The grade of pesticide damage/plant: 2 (genotype PPOF-02, 360 g ai/ha): 0 plant
The grade of pesticide damage/plant: 3 (genotype PPOF-02, 360 g ai/ha): 0 plant
The grade of pesticide damage/plant: 0 (genotype PPOF-02, 720 g ai/ha): 16 plant
The grade of pesticide damage/plant: 1 (genotype PPOF-02, 720 g ai/ha): 0 plant
The grade of pesticide damage/plant: 2 (genotype PPOF-02, 720 g ai/ha): 0 plant
The grade of pesticide damage/plant: 3 (genotype PPOF-02, 720 g ai/ha): 0 plant
tolerance to the herbicide (in words) (genotypes PPOA-02 to PPOF-02, four-fold field concentration): high-resistant tolerance
tolerance to the herbicide (in words) (genotypes PPOA-02 to PPOF-02, two-fold field concentration): high-resistant tolerance
